Source: patent US11787847B2, “Method of identifying malodor modulating compounds” (FIRMENICH SA, priority 2017, dated 2023)

Assays:
[1] = biological target: T1, OR4S2 (Homo sapiens, UniProt Q8NH73); assay: cell-based dose-response, cAMP increase by HTRF, HEK293T cells (endogenous RTP1 activated) co-transfected with human Golf, Rho-FLAG tagged receptor; set-up: the human receptors were tagged with a Rho-FLAG® tag combination; expressed in transfected cells
T1 sequence (Q8NH73 1-311): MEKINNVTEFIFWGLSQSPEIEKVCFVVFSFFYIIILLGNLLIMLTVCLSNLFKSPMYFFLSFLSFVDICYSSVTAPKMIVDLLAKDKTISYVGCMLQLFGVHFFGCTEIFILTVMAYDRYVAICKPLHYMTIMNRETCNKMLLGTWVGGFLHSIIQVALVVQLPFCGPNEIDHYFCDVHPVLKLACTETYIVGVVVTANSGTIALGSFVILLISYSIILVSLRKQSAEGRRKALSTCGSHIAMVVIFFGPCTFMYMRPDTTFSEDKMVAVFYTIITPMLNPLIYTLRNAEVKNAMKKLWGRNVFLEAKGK
Procedure: Functional dose-response experiments were performed to evaluate the level of DMTS activity of the modified cell line expressing individual putative DMTS receptors. Using a cell-based assay, mouse receptor Olfr1193, Olfr1093, Olfr1097, Olrf166, Olfr169, Olfr738 and Olfr742, and human receptor OR4S2 and OR52N5 were tested in an HEK293T cell line wherein the endogenous RTP1 gene has been activated and the odorant receptor chaperone protein was expressed (described in WO2016/201153). The mouse receptor genes were tagged with a Lucy-FLAG®-Rho tag combination and the human receptors were tagged with a Rho-FLAG® tag combination resulting in a tag:receptor fusion protein for the cell based assay. Receptor genes were co-transfected with the canonical olfactory human G-protein alpha subunit Golf gene and were exposed to increasing concentrations of the malodor odorant. Co-expression of the human Golf activates the Gs transduction pathway that leads to an internal cAMP increase upon binding to the appropriate ligand. Odorant-induced activity was detected by measuring the cAMP increase in the cytosol using an Homogeneous Time Resolved Fluorescence (HTRF) based kit (CisBio, cAMP dynamic 2 kit, cat. 62AM4PEJ). […]

[2] = biological target: T2, human receptor OR52N2 (Homo sapiens, UniProt Q8NGI0); assay: cell-based dose-response, Ca2+ increase (Calcium 5 dye, FLIPR), HEK293T line stably expressing FLAG-Rho tagged receptor with human Gα15; settings: FIG. 3, Example 3, SEQ ID NO: 38, stable HEK293T
T2 construct: The receptors were tagged with a FLAG®-Rho tag combination; expressed in transfected cells
T2 sequence (Q8NGI0 1-321): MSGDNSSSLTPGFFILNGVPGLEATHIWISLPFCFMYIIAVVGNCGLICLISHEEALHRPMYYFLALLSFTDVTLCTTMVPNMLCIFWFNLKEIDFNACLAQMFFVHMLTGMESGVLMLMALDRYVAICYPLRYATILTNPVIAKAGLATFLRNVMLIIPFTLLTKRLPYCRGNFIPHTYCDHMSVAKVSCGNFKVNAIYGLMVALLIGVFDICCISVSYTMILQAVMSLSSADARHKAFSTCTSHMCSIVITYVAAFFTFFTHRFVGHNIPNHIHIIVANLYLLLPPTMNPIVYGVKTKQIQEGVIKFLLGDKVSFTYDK
Procedure: (§1) Functional dose-response experiments were performed to evaluate the level of DMTS activity of the modified cell lines expressing individual putative DMTS receptors. A cell line stably expressing a human receptor was generated in a HEK293T cell line for each of the following human receptors: OR2L13, OR4C15, OR5AC2, OR8H3, OR11G2 or OR52N2. The receptors were tagged with a FLAG®-Rho tag combination and stably co-expressed with the human G-protein alpha subunit Gals for the cell based assay. Co-expression of the human Gals activates the Gq transduction pathway that leads to an internal Ca^2+ increase upon binding to the appropriate ligand. Receptors were exposed to increasing concentrations of DMTS. Odorant-induced activity was detected by measuring the Ca^2+ increase in the cytosol using a calcium sensitive fluorescent dye (Molecular Devices, Calcium 5 dye, cat. R8186) and measuring the change in Relative Fluorescence Ratio (RFU) using a fluorometric imaging plate reader (Molecular Devices, FLIPR) following odorant exposure. […] A cell line lacking a receptor was used as a control for non-specific activity at high compound concentrations (‘No receptor’). The activity levels are reported by the potency of the DMTS induced-response for each receptor as a measure of the EC50 value.

[3] = biological target: T3, human receptor OR5AC2 (Homo sapiens, UniProt Q9NZP5); assay: as above; settings: FIG. 3, Example 3, SEQ ID NO: 32, stable HEK293T
T3 construct: The receptors were tagged with a FLAG®-Rho tag combination; expressed in transfected cells
T3 sequence (Q9NZP5 1-309): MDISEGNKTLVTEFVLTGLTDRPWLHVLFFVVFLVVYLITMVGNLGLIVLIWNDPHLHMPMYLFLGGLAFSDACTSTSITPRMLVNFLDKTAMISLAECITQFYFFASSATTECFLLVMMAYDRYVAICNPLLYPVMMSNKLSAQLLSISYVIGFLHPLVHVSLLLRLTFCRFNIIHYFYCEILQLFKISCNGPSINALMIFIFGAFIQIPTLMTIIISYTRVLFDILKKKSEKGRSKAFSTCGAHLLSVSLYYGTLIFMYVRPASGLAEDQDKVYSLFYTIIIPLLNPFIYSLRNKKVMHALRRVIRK
Procedure: as §1

[4] = biological target: T4, human receptor OR4C15 (Homo sapiens, UniProt Q8NGM1); assay: as above; settings: FIG. 3, Example 3, SEQ ID NO: 30, stable HEK293T
T4 construct: The receptors were tagged with a FLAG®-Rho tag combination; expressed in transfected cells
Procedure: as §1

T4 sequence (Q8NGM1 with tags, fused parts or gaps): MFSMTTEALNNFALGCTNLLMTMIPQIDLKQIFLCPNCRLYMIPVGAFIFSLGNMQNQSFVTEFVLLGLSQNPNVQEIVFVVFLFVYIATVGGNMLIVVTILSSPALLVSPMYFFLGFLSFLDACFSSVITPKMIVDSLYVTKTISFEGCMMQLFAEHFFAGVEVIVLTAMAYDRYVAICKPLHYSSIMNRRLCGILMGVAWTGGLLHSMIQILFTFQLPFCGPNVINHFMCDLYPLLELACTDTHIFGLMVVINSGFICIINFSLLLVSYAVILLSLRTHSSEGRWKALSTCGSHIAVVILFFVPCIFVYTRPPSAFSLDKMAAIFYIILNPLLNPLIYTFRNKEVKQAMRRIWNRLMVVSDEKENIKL

An EC50 ([1]; FIG. 2, Example 2, SEQ ID NO: 42) of 2000 nM, an EC50 ([1]; FIG. 5, Example 5, SEQ ID NO: 42) of 325 nM and an EC50 [2] of 5000 nM were found for CSSSC [DMTS, dimethyl trisulfide] in this work. It also gave an EC50 [3] of 27000 nM and an EC50 [4] of 800 nM.
